From patent publication US20220107328A1, “METHODS OF TREATING LIVER DISEASES” (Camp4 Therapeutics Corporation, priority 2018, published 2022)
One block for each compound: values may come before it.

What was measured:
PNPLA3 mRNA [1] = test: qRT-PCR of PNPLA3 mRNA in compound-treated primary human hepatocytes; settings: for Relative PINPLA3 mRNA: hepatocytes; for Relative PNPLA3 mRNA levels: human hepatocytes; for Relative PNLPA3 mRNA expression in HU4282 cells: Lonza HU4282 hepatocytes; for Relative PNPLA3 mRNA expression in Yecuris RMG cells: Yecuris RMG hepatocytes; for Relative PNPLA3 mRNA expression: primary human hepatocytes, Table 34
PNPLA3 mRNA [2] = test: qRT-PCR of PNPLA3 mRNA in human primary hepatic stellate cells; type: cell-based; settings: for Relative PNPLA3 nRNA expression in Stellate cells: 16 hours; for Primary Stellate cells PNPLA3 (fold change in mRNA expression): 3 μM; for Relative PNPLA3 mRNA levels RQ: GSK3 inhibitors in hepatic stellate cells
COL1A1 mRNA = test: qRT-PCR of COL1A1 mRNA in human primary hepatic stellate cells; type: cell-based; settings: for Primary Stellate cells COL1A1 (fold change in mRNA expression): 3 μM, relative to GAPDH; for Relative COL1A1 mRNA levels RQ: GSK3 inhibitors in hepatic stellate cells
Procedure: Cells were plated at a density of 17000 cells/well in a 96-well plate and allowed to adhere overnight. The following day cell culture media was replenished with the indicated concentration(s) of compound for 18 hours. […] Medium was removed after 18 hours and cells were processed for further analysis, e.g. qRT-PCR.
Analysis of the fold changes in expression as measured by qRT-PCR were performed using the technique below. The control was DMSO, and the treatment was the selected compound (CPD). The internal control was GAPDH or B-Actin (or otherwise indicated), and the gene of interest is the target. First, the averages of the 4 conditions were calculated for normalization: DMSO:GAPDH, DMSO:Target, CPD: GAPDH, and CPD:Target. Next, the ΔCT of both control and treatment were calculated to normalize to internal control (GAPDH) using (DMSO:Target)−(DMSO:GAPDH)=ΔCT control and (CPD:Target)−(CPD: GAPDH)=ΔCT experimental. Then, the ΔΔCT was calculated by ΔCT experimental−ΔCT control.
Candidate compounds were tested in stellate cells for their ability to modulate PNPLA3 and COL1A1. Stellate cells were treated with serial dilutions of the compounds, ranging from 0.1 μM to 100 μM. Changes in PNPLA3 (or COL1A1) mRNA levels in stellate cells were analyzed with qRT-PCR.

PCSK9 mRNA = test: qRT-PCR of PCSK9 mRNA in primary hepatocytes; type: cell-based, human; settings: donor 4178, 3 μM, relative to GUSB
[3] = Syk pathway inhibitors, 10 μM, normalized to B2M, mean of three replicates ± standard deviation
[4] = JAK inhibitors, 10 μM, qRT-PCR, mean of three replicates ± standard deviation
[5] = 3.3 uM, 16 hours, relative to GUSB
[6] = 10 uM, 16 hours, relative to GUSB
[7] = hepatic stellate cells, serial dilutions, 18 hours

SMILES: CC[C@@H]1C(=O)N(C)c2cnc(Nc3ccc(C(=O)NC4CCN(C)CC4)cc3OC)nc2N1C1CCCC1 [BI 2536]
Relative PINPLA3 mRNA (PNPLA3 mRNA [1]; 10 uM): 0.38

SMILES: NCCC(O)(P(=O)(O)O)P(=O)(O)O [Pamidronate]
Relative PINPLA3 mRNA (PNPLA3 mRNA [1]; 10 uM): 0.2

SMILES: C/C=C1\NC(=O)[C@H]2CSSCC/C=C/[C@H](CC(=O)N[C@H](C(C)C)C(=O)N2)OC(=O)[C@H](C(C)C)NC1=O [Romidepsin (FK228, Depsipeptide)]
Relative PINPLA3 mRNA (PNPLA3 mRNA [1]; 10 uM): 0.3

SMILES: O=C(NCCCNc1nc(Nc2cccc(NC(=O)N3CCCC3)c2)ncc1I)c1cccs1 [BX795]
Relative PNPLA3 mRNA levels (PNPLA3 mRNA [1]; TBK1 inhibitor, concentration not given): 0.51±0.06

SMILES: c1cn2cc(-c3ccc4cn[nH]c4c3)nc(Nc3ccc(N4CCOCC4)cc3)c2n1 [entospletinib]
Relative PNPLA3 mRNA levels (PNPLA3 mRNA [1]; [3]): 0.67 ± 0.05

SMILES: C=CC(=O)N1C[C@H](COc2nc(Nc3cnn(C)c3)nc3[nH]cc(Cl)c23)[C@@H](OC)C1 [PF-06459988]
Relative PINPLA3 mRNA (PNPLA3 mRNA [1]; 1 uM): 0.965
Relative PINPLA3 mRNA (PNPLA3 mRNA [1]; 10 uM): 0.398

SMILES: Cl.NNc1nncc2ccccc12 [Hydralazine HCI]
Relative PINPLA3 mRNA (PNPLA3 mRNA [1]; 10 uM): 0.25

SMILES: CC1(C)CN(C(=O)c2ccc(-c3cccc4nc(NC(=O)C5CC5)nn34)cc2)C1 [Solcitinib]
Relative PNPLA3 mRNA levels (PNPLA3 mRNA [1]; [4]): 1.10 ± 0.01

SMILES: N#CC[C@H](C1CCCC1)n1cc(-c2ncnc3[nH]ccc23)cn1 [Ruxolitinib]
Relative PNPLA3 mRNA levels (PNPLA3 mRNA [1]; [4]): 0.89 ± 0.17

SMILES: N#CCNC(=O)c1ccc(-c2ccnc(Nc3ccc(N4CCOCC4=O)cc3)n2)cc1 [M21]
Relative PNLPA3 mRNA expression in HU4282 cells (PNPLA3 mRNA [1]; [5]): 0.213 ± 0.028
Relative PNLPA3 mRNA expression in HU4282 cells (PNPLA3 mRNA [1]; [6]): 0.138 ± 0.015
PNPLA3 mRNA expression (in words) (PNPLA3 mRNA [1]; Yecuris RMG and Lonza HU4282 hepatocytes, 16 hours, relative to GUSB): reduced PNPLA3 mRNA expression in a dose dependent manner
Relative PNPLA3 mRNA expression in Yecuris RMG cells (PNPLA3 mRNA [1]; [5]): 0.910 ± 0.068
Relative PNPLA3 mRNA expression in Yecuris RMG cells (PNPLA3 mRNA [1]; [6]): 0.165 ± 0.018
PNPLA3 mRNA expression (in words) (PNPLA3 mRNA [2]; stellate cells ST1 and ST8, 16 hours, relative to GAPDH): reduced PNPLA3 mRNA expression, with the most significant decrease after treatment with 3.3 μM M21
Relative PNPLA3 nRNA expression in Stellate cells (PNPLA3 mRNA [2]; stellate cells donor ST1, 3.3 uM, relative to GAPDH): 0.26 ± 0.11
Relative PNPLA3 nRNA expression in Stellate cells (PNPLA3 mRNA [2]; stellate cells donor ST1, 10 uM, relative to GAPDH): 0.54 ± 0.10
Relative PNPLA3 nRNA expression in Stellate cells (PNPLA3 mRNA [2]; stellate cells donor ST8, 3.3 uM, relative to GAPDH): 0.31 ± 0.01
Relative PNPLA3 nRNA expression in Stellate cells (PNPLA3 mRNA [2]; stellate cells donor ST8, 10 uM, relative to GAPDH): 0.49 ± 0.05

Primary Hepatocytes 4178 PCSK9 (fold change in mRNA expression) (PCSK9 mRNA): 0.59
SMILES: Cc1c(Cn2c(C)nc3c(C(=O)O)cc(N4CCOCC4)cc32)cccc1C(F)(F)F [GSK2636771]
Primary Stellate cells COL1A1 (fold change in mRNA expression) (COL1A1 mRNA): 1.04
Primary Stellate cells PNPLA3 (fold change in mRNA expression) (PNPLA3 mRNA [2]; relative to GAPDH): 1.06

SMILES: CN1CCN(S(=O)(=O)c2ccc(-c3cnc(N)c(C(=O)Nc4cccnc4)n3)cc2)CC1 [AZD2858]
Relative COL1A1 mRNA levels RQ (COL1A1 mRNA; 1 μM): 0.83
Relative COL1A1 mRNA levels RQ (COL1A1 mRNA; 10 μM): 0.72
COL1A1 expression (in words) (COL1A1 mRNA; [7]): modestly decreased both PNPLA3 and COL1A1 in a dose dependent manner
Relative PNPLA3 mRNA levels RQ (PNPLA3 mRNA [2]; 1 μM): 0.48
Relative PNPLA3 mRNA levels RQ (PNPLA3 mRNA [2]; 10 μM): 0.72
PNPLA3 mRNA levels (in words) (PNPLA3 mRNA [2]; [7]): modestly decreased both PNPLA3 and COL1A1 in a dose dependent manner

SMILES: CNS(=O)(=O)C[C@H]1CC[C@H](N(C)c2ncnc3[nH]ccc23)CC1 [Oclacitinib]
Relative PNPLA3 mRNA levels (PNPLA3 mRNA [1]; [4]): 0.56 ± 0.03
PNPLA3 expression (in words) (PNPLA3 mRNA [1]; validation in human hepatocytes from a second donor, qRT-PCR): efficient downregulation of PNPLA3

SMILES: CC[C@@H]1CN(C(=O)NCC(F)(F)F)C[C@@H]1c1cnc2cnc3[nH]ccc3n12 [Upadacitinib]
Relative PNPLA3 mRNA levels (PNPLA3 mRNA [1]; [4]): 0.93 ± 0.15

SMILES: Cc1cccc(-c2[nH]c(CNc3ccccc3F)nc2-c2ccc3ncnn3c2)n1 [TEW-7197]
Relative PNPLA3 mRNA expression (PNPLA3 mRNA [1]; 0.04 uM): 1.219 ± 0.186
Relative PNPLA3 mRNA expression (PNPLA3 mRNA [1]; 0.12 uM): 0.822 ± 0.152
Relative PNPLA3 mRNA expression (PNPLA3 mRNA [1]; 0.37 uM): 0.613 ± 0.035
Relative PNPLA3 mRNA expression (PNPLA3 mRNA [1]; 3.3 uM): 0.560 ± 0.134

SMILES: Nc1cc(C(F)(F)F)c(-c2cc(N3CCOCC3)nc(N3CCOCC3)n2)cn1 [Buparlisib (BKM120, NVP-BKM120)]
Relative PINPLA3 mRNA (PNPLA3 mRNA [1]; 0.1 uM): 1.049
Relative PINPLA3 mRNA (PNPLA3 mRNA [1]; 0.3 uM): 0.729
Relative PINPLA3 mRNA (PNPLA3 mRNA [1]; 1 uM): 0.659
Relative PINPLA3 mRNA (PNPLA3 mRNA [1]; 3 uM): 0.515

SMILES: COC(=O)C1=C(C#N)NC(C)=C(C(=O)OC(C)C)C1c1cccc([N+](=O)[O-])c1 (centres unmarked) [nilvadipine]
Relative PNPLA3 mRNA levels (PNPLA3 mRNA [1]; [3]): 0.61 ± 0.08

Primary Hepatocytes 4178 PCSK9 (fold change in mRNA expression) (PCSK9 mRNA): 0.56
SMILES: Cc1cc([C@@H](C)Nc2ccccc2C(=O)O)c2nc(N3CCOCC3)cc(=O)n2c1 [AZD6482]
Primary Stellate cells COL1A1 (fold change in mRNA expression) (COL1A1 mRNA): 1.20
Primary Stellate cells PNPLA3 (fold change in mRNA expression) (PNPLA3 mRNA [2]; relative to GAPDH): 0.87
